Experiments:
COLO 205 = assay: Growth inhibition of human COLO205 cells after 48 hrs by sulforhodamine B assay; assay type: functional; conditions: COLO 205, 48 h
SF-268 = assay: Growth inhibition of human SF268 cells after 48 hrs by sulforhodamine B assay; assay type: functional; conditions: SF-268, 48 h
M14 = assay: Growth inhibition of human M14 cells after 48 hrs by sulforhodamine B assay; assay type: functional; conditions: M14, 48 h
OVCAR-4 = assay: Growth inhibition of human OVCAR4 cells after 48 hrs by sulforhodamine B assay; assay type: functional; conditions: OVCAR-4, 48 h
SF-295 = assay: Growth inhibition of human SF295 cells after 48 hrs by sulforhodamine B assay; assay type: functional; conditions: SF-295, 48 h
NCI-H322M = assay: Growth inhibition of human NCI-H322M cells after 48 hrs by sulforhodamine B assay; assay type: functional
NCI-H226 = assay: Growth inhibition of human NCI-H226 cells after 48 hrs by sulforhodamine B assay; assay type: functional; conditions: NCI-H226, 48 h
Plasmodium falciparum = assay: Antimalarial activity after 72 hrs against chloroquine-sensitive Plasmodium falciparum D6 infected in erythrocytes by LDH assay; assay type: functional, organism-based; conditions: D6, 72 h
CAKI-1 = assay: Growth inhibition of human Caki1 cells after 48 hrs by sulforhodamine B assay; assay type: functional; conditions: CAKI-1, 48 h
CCRF-CEM = assay: Growth inhibition of human CCRF-CEM cells after 48 hrs by sulforhodamine B assay; assay type: functional
HCT-116 = assay: Growth inhibition of human HCT116 cells after 48 hrs by sulforhodamine B assay; assay type: functional; conditions: HCT-116, 48 h
NCI-H460 = assay: Growth inhibition of human NCI-H460 cells after 48 hrs by sulforhodamine B assay; assay type: functional; conditions: NCI-H460, 48 h
HL-60 = assay: Growth inhibition of human HL-60(TB) cells after 48 hrs by sulforhodamine B assay; assay type: functional; conditions: HL-60, 48 h
MOLT-4 = assay: Growth inhibition of human MOLT4 cells after 48 hrs by sulforhodamine B assay; assay type: functional; conditions: MOLT-4, 48 h
PC-3 = assay: Growth inhibition of human PC3 cells after 48 hrs by sulforhodamine B assay; assay type: functional; conditions: PC-3, 48 h
SN12C = assay: Growth inhibition of human SN12C cells after 48 hrs by sulforhodamine B assay; assay type: functional
NCI-H522 = assay: Growth inhibition of human NCI-H522 cells after 48 hrs by sulforhodamine B assay; assay type: functional; conditions: NCI-H522, 48 h
LOX IMVI = assay: Growth inhibition of human LOXIMVI cells after 48 hrs by sulforhodamine B assay; assay type: functional
OVCAR-5 = assay: Growth inhibition of human OVCAR5 cells after 48 hrs by sulforhodamine B assay; assay type: functional; conditions: OVCAR-5, 48 h
[1] = Selectivity index, ratio of TC50 for african green monkey (Cercopithecus aethiops) Vero cells to IC50 for chloroquine-sensitive Plasmodium falciparum D6; assay type: toxicity, cell-based
[2] = Cytotoxicity against african green monkey Vero cells after 48 hrs by neutral red assay; assay type: cell-based; conditions: chlorocebus sabaeus, read-out: TC50
MDA-MB-435 = assay: Growth inhibition of human MDA-MB-435 cells after 48 hrs by sulforhodamine B assay; assay type: functional; conditions: MDA-MB-435, 48 h
IGROV-1 = assay: Growth inhibition of human IGROV1 cells after 48 hrs by sulforhodamine B assay; assay type: functional; conditions: IGROV-1, 48 h
U-251 = assay: Growth inhibition of human U251 cells after 48 hrs by sulforhodamine B assay; assay type: functional; conditions: U-251, 48 h
EKVX = assay: Growth inhibition of human EKVX cells after 48 hrs by sulforhodamine B assay; assay type: functional
SK-MEL-5 = assay: Growth inhibition of human SK-MEL-5 cells after 48 hrs by sulforhodamine B assay; assay type: functional; conditions: SK-MEL-5, 48 h
RXF 393 = assay: Growth inhibition of human RXF393 cells after 48 hrs by sulforhodamine B assay; assay type: functional; conditions: RXF 393, 48 h
UO-31 = assay: Growth inhibition of human UO31 cells after 48 hrs by sulforhodamine B assay; assay type: functional; conditions: UO-31, 48 h
HCT-15 = assay: Growth inhibition of human HCT15 cells after 48 hrs by sulforhodamine B assay; assay type: functional; conditions: HCT-15, 48 h
OVCAR-3 = assay: Growth inhibition of human OVCAR-3 cells after 48 hrs by sulforhodamine B assay; assay type: functional; conditions: OVCAR-3, 48 h
HT-29 = assay: Growth inhibition of human HT-29 cells after 48 hrs by sulforhodamine B assay; assay type: functional; conditions: HT-29, 48 h

`C[C@H]1[C@@H](O[C@@H](C)CO[C@H]2O[C@@H]3O[C@@]4(C)CC[C@H]5[C@H](C)CC[C@@H]([C@H]2C)[C@@]35OO4)O[C@@H]2O[C@@]3(C)CC[C@H]4[C@H](C)CC[C@@H]1[C@@]24OO3` gave a GI50 (COLO 205) of 12 nM, a GI50 (SF-268) of 65 nM and a GI50 (M14) of 18 nM. It also gave a GI50 (OVCAR-4) of 72 nM, a GI50 (SF-295) of 92 nM and a GI50 (NCI-H322M) of 88 nM. It also gave a GI50 (NCI-H226) of 226 nM, an IC50 (Plasmodium falciparum) of 3800 nM and a GI50 (CAKI-1) of 376 nM. It also gave a GI50 (CCRF-CEM) of 18 nM, a GI50 (HCT-116) of less than 10 nM and a GI50 (NCI-H460) of 27 nM. For the same compound, the GI50 (HL-60) was less than 10 nM, the GI50 (MOLT-4) was less than 10 nM and the GI50 (PC-3) was 9 nM. It also gave a GI50 (SN12C) of 25 nM, a GI50 (NCI-H522) of 54 nM and a GI50 (LOX IMVI) of 179 nM. The GI50 (OVCAR-5) was 27 nM, the selectivity ratio [1] was greater than 21 and the CC50 at 48 h [2] was greater than 78000 nM. It also gave a GI50 (MDA-MB-435) of 27 nM, a GI50 (IGROV-1) of 130 nM and a GI50 (U-251) of less than 10 nM. For the same compound, the GI50 (EKVX) was 37 nM, the GI50 (SK-MEL-5) was 29 nM and the GI50 (RXF 393) was less than 10 nM. It also gave a GI50 (UO-31) of 31 nM, a GI50 (HCT-15) of less than 10 nM and a GI50 (OVCAR-3) of 46 nM. The GI50 (HT-29) was 12 nM.
